Key:
Assay type in all cases: in vivo
[1] = system: foxtail, giant (giant foxtail, Setaria faberii); experiment: Test A pre-/postemergence: foxtail, giant
Procedure, shortened: (§1)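 Whole-plant greenhouse assay in loam/sand. Preemergence directed soil spray plus simultaneous postemergence spray (one- to two-leaf stage, 2–10 cm). Rated visually ~10 days later, 0 = no effect, 100 = complete control.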

[2] = system: morningglory (Ipomoea spp.); experiment: Test A pre-/postemergence: morningglory
Procedure, shortened: as §1

[3] = system: pigweed (Amaranthus retroflexus); experiment: Test A pre-/postemergence: pigweed
Procedure, shortened: as §1

[4] = system: velvetleaf (Abutilon theophrasti); experiment: Test A pre-/postemergence: velvetleaf
Procedure, shortened: as §1

[5] = system: wheat (Triticum aestivum); experiment: Test A pre-/postemergence: wheat
Procedure, shortened: as §1

[6] = system: winter wheat (Triticum aestivum); experiment: Test C pre-/postemergence: winter wheat
Procedure, shortened: (§2)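 Visual injury scored 0–100 (100 = complete control) against untreated controls after 13–15 greenhouse days. Surfactant-containing solvent formulations applied either to soil after sowing (loam/sand) or over 1- to 4-leaf plants, 2–18 cm tall.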

corn (Zea mays) = experiment: Test C pre-/postemergence: corn
Procedure, shortened: as §2

kochia (Kochia scoparia) = experiment: Test C pre-/postemergence: kochia
Procedure, shortened: as §2

[7] = system: morningglory (Ipomoea coccinea); experiment: Test C pre-/postemergence: morningglory
Procedure, shortened: as §2

[8] = system: ragweed (common ragweed, Ambrosia elation); experiment: Test C pre-/postemergence: ragweed
Procedure, shortened: as §2

[9] = system: velvetleaf (Abutilon theophrasti); experiment: Test C pre-/postemergence: velvetleaf
Procedure, shortened: as §2

[10] = system: chickweed (common chickweed, Stellaria media); experiment: Test C postemergence: chickweed
Text: At the same time, plants selected from these crop and weed species and also barley (winter barley, Hordeum vulgare), canarygrass (Phalaris minor), chickweed (common chickweed, Stellaria media) windgrass (Apera spica-venti) and deadnettle (henbit deadnettle, Lamium amplexicaule) were planted in pots containing Redi-Earth® planting medium (Scotts Company, 14111 Scottslawn Road, Marysville, Ohio 43041) comprising spaghnum peat moss, vermiculite, wetting agent and starter nutrients and treated with postemergence applications of test chemicals formulated in the same manner. Plants ranged in height from 2 to 18 cm (1- to 4-leaf stage) for postemergence treatments.
Treated plants and controls were maintained in a greenhouse for 13 to 15 days, after which time all species were compared to controls and visually evaluated. Plant response ratings, summarized in Table C, are based on a scale of 0 to 100 where 0 is no effect and 100 is complete control. A dash (-) response means no test result.

[11] = Postemergence, 125 g ai/ha, 0 to 100 scale, 0 is no effect, 100 is complete control
[12] = Postemergence, 500 g ai/ha, 0 to 100 scale, 0 is no effect, 100 is complete control
[13] = Preemergence, 125 g ai/ha, 0 to 100 scale where 0 is no effect and 100 is complete control
[14] = Preemergence, 500 g ai/ha, 0 to 100 scale (0 no effect, 100 complete control)
[15] = Postemergence, 31 g ai/ha, scale 0 to 100 (0 no effect, 100 complete control)
[16] = Postemergence, 62 g ai/ha, scale 0 to 100 (0 no effect, 100 complete control)
[17] = Postemergence, 125 g ai/ha, scale 0 to 100, 0 no effect, 100 complete control
[18] = Postemergence, 250 g ai/ha, scale 0 to 100 (0 no effect, 100 complete control)
[19] = Preemergence, 31 g ai/ha, scale 0 (no effect) to 100 (complete control)
[20] = Preemergence, 62 g ai/ha, scale of 0 to 100, 0 is no effect, 100 is complete control
[21] = Preemergence, 125 g ai/ha, scale 0 to 100, 0 no effect, 100 complete control
[22] = Preemergence, 250 g ai/ha, scale 0 to 100, 0 no effect, 100 complete control

## CCOc1nn(-c2ccc(F)cc2)nc1Cc1ccnc(C(F)F)c1 [Compound 195]
[1]; [11]
  Plant response rating, Foxtail, Giant: 90
[1]; [12]
  Foxtail, Giant plant response rating: 90
[1]; [13]
  Plant response rating, Foxtail, Giant: 100
[1]; [14]
  Plant response rating, Foxtail, Giant: 100
[2]; [11]
  Plant response rating, Morningglory: 80
[2]; [12]
  Morningglory plant response rating: 100
[2]; [13]
  Plant response rating, Morningglory: 50
[2]; [14]
  Plant response rating, Morningglory: 60
[3]; [11]
  Plant response rating, Pigweed: 100
[3]; [12]
  Pigweed plant response rating: 100
[3]; [13]
  Plant response rating, Pigweed: 100
[3]; [14]
  Plant response rating, Pigweed: 100
[4]; [11]
  Plant response rating, Velvetleaf: 90
[4]; [12]
  Velvetleaf plant response rating: 100
[4]; [13]
  Plant response rating, Velvetleaf: 70
[4]; [14]
  Plant response rating, Velvetleaf: 80
[5]; [11]
  Plant response rating, Wheat: 30
[5]; [12]
  Wheat plant response rating: 30
[5]; [13]
  Plant response rating, Wheat: 20
[5]; [14]
  Plant response rating, Wheat: 50
[6]; [15]
  Plant response rating, Wheat: 10
[6]; [16]
  Plant response rating, Wheat: 20
[6]; [17]
  Plant response rating, Wheat: 25
[6]; [18]
  Plant response rating, Wheat: 30
[6]; [19]
  Plant response rating, Wheat: 0
[6]; [20]
  Plant response rating, Wheat: 5
[6]; [21]
  Plant response rating, Wheat: 5
[6]; [22]
  Plant response rating, Wheat: 30
Corn (Zea mays); [15]
  Plant response rating, Corn: 60
Corn (Zea mays); [16]
  Plant response rating, Corn: 75
Corn (Zea mays); Postemergence, 250 g ai/ha, scale 0 to 100
  Plant response rating, Corn: 80
Corn (Zea mays); [19]
  Plant response rating, Corn: 0
Corn (Zea mays); [20]
  Plant response rating, Corn: 5
Corn (Zea mays); [21]
  Plant response rating, Corn: 15
Corn (Zea mays); [22]
  Plant response rating, Corn: 35
Kochia (Kochia scoparia); [15]
  Plant response rating, Kochia: 75
Kochia (Kochia scoparia); [16]
  Plant response rating, Kochia: 85
Kochia (Kochia scoparia); [17]
  Plant response rating, Kochia: 90
Kochia (Kochia scoparia); [18]
  Plant response rating, Kochia: 95
Kochia (Kochia scoparia); [19]
  Plant response rating, Kochia: 60
Kochia (Kochia scoparia); [20]
  Plant response rating, Kochia: 75
Kochia (Kochia scoparia); [22]
  Plant response rating, Kochia: 95
[7]; [15]
  Plant response rating, Morningglory: 65
[7]; [16]
  Plant response rating, Morningglory: 90
[7]; [17]
  Plant response rating, Morningglory: 90
[7]; [18]
  Plant response rating, Morningglory: 95
[7]; [19]
  Plant response rating, Morningglory: 30
[7]; [20]
  Plant response rating, Morningglory: 50
[7]; [21]
  Plant response rating, Morningglory: 75
[7]; [22]
  Plant response rating, Morningglory: 90
[8]; [16]
  Plant response rating, Ragweed: 50
[8]; [17]
  Plant response rating, Ragweed: 70
[8]; [18]
  Plant response rating, Ragweed: 85
[8]; [19]
  Plant response rating, Ragweed: 15
[8]; [20]
  Plant response rating, Ragweed: 20
[8]; [21]
  Plant response rating, Ragweed: 20
[8]; [22]
  Plant response rating, Ragweed: 55
[9]; [15]
  Plant response rating, Velvetleaf: 45
[9]; [16]
  Plant response rating, Velvetleaf: 50
[9]; [17]
  Plant response rating, Velvetleaf: 60
[9]; [18]
  Plant response rating, Velvetleaf: 65
[9]; [19]
  Plant response rating, Velvetleaf: 10
[9]; [20]
  Plant response rating, Velvetleaf: 25
[9]; [21]
  Plant response rating, Velvetleaf: 55
[9]; [22]
  Plant response rating, Velvetleaf: 90
[10]; 31 g ai/ha, scale 0 to 100 (0 no effect, 100 complete control)
  Plant response rating, Chickweed: 95
[10]; 62 g ai/ha, scale 0 to 100 (0 no effect, 100 complete control)
  Plant response rating, Chickweed: 95
[10]; 125 g ai/ha, scale 0 to 100, 0 no effect, 100 complete control
  Plant response rating, Chickweed: 98
[10]; 250 g ai/ha, scale 0 to 100
  Plant response rating, Chickweed: 98
